Reference: patent publication US7943616B2, “Azaindoles for inhibiting aurora2 and other kinases” (Aventis Pharmaceuticals Inc., priority 2001, dated 2011)

Compound | melting point
COc1ccc2[nH]cc(-c3cc4nccnc4[nH]3)c2c1 [Example 11, 6-(5-methoxy-1H-indol-3-yl)-5H-pyrrolo[2,3-b]pyrazine] | 268 to 271 °C
Cn1cc(-c2cc3cccnc3[nH]2)c2cc(N)ccc21 [Example 18, 1-Methyl-3-(1H-pyrrolo[2,3-b]pyridin-2-yl)-1H-indol-5-ylamine] | 247 to 248 °C
CC(C)(C)c1ccc(-c2[nH]c3nccnc3c2CCCO)cc1 [Example 26, 3-[6-(4-tert-Butyl-phenyl)-5H-pyrrolo[2,3-b]pyrazin-7-yl]-propan-1-ol] | 187 to 189 °C
CCOC(=O)COc1cc(-c2cc3nccnc3[nH]2)ccc1OC [Example 27, [2-Methoxy-5-(5H-pyrrolo[2,3-b]pyrazin-6-yl)-phenoxy]acetic Acid Ethyl Ester] | 183 to 184 °C
COc1ccc2[nH]cc(-c3cc4c(C(N)=O)ccnc4[nH]3)c2c1 [Example 42, 2-(5-Methoxy-1H-indol-3-yl)-1H-pyrrolo[2,3-b]pyridine-4 Carboxamide] | > 320 °C

Now from value to compound:

melting point | Compound
208 to 209 °C | c1cncc(OCCCn2cc(-c3cc4nccnc4[nH]3)c3ccccc32)c1 [Example 6, 6-{1-[3-(Pyridin-3-yloxy)-propyl]-1H-indol-3-yl}-5H-pyrrolo[2,3-b]pyrazine]
289 to 290 °C | Cn1cc(-c2cc3nccnc3[nH]2)c2cc(O)ccc21 [Example 7, 1-methyl-3-(5H-pyrrolo[2,3-b]pyrazin-6-yl)-1H-indol-5-ol]
215 to 216 °C | CC(C)(C)c1ccc(-c2[nH]c3nccnc3c2CCC#N)cc1 [Example 23]
